From EP3750892A1, “NOVEL 5-CYCLOPROPYL-FURO[3,4-C]PYRIDINE-3,4(1H,5H)-DIONE 1,1' SUBSTITUTED DERIVATIVES AND THEIR USES” (Yerevan State University, priority 2019, dated 2020)
Each block holds one compound with its values, some of them ahead of it.

What was measured:
Type in all cases: cell-based
[1] = system: cellular response to IFN-γ; assay: ISRE-Luc reporter assay: amplification of cellular response to type II IFN; settings: HEK-293 ISRE-Luc, compound 80 µM, recombinant IFN-γ
Protocol: Reporter system, cell culture and luciferase assay are performed as exposed above. HEK-293 cells with the ISRE-Luc reporter gene were treated with DMSO or compounds of the invention in the absence or presence of recombinant IFN-γ (Figure 4A; Roussel Uclaf or Milteny Biotech, 150 IU/mL).
(§1) The same experiment was performed but using different dilutions ranging from 1/8 to 1/64 of conditioned supernatants from activated PBMCs, instead of recombinant IFN-γ. Human peripheral blood mononuclear cells (PBMC) from one healthy donor were isolated by density centrifugation with Lymphoprep medium (StemCell Technologies) from leucocytes concentrates obtained when plateletpheresis was performed (Etablissement Français du Sang; Paris; France). To activate PBMCs, cells were treated for 24 h with the TLR7/8 ligand R848 at 5 µg/mL (Sigma Aldrich) and supernatants were harvested. R848 is known to induce expression of several cytokines, within which IFN-γ which is found at high levels in PBMC supernatants in comparison with type I IFNs (Table 4). Table 4. Cytokine expression levels in culture supernatants of human PBMC activated with R848.

HEK-293 cells = assay: Cell viability / proliferation assay (CellTiter-Glo); settings: 24, 48 and 72 h of culture
Protocol: Cells were treated with DMSO or compounds of the invention at different concentrations, and the number of viable cells was determined using the CellTiter-Glo reagent after 24, 48 and 72 h of culture. Cellular viability was determined by quantification of ATP in culture wells using the CellTiter-Glo assay (Promega).
Two independent experiments were performed. Results were analyzed using one-way analysis of variance (ANOVA) with Bonferroni's post hoc test.

[2] = system: de novo pyrimidine biosynthesis; assay: Purine (G/A) and pyrimidine (C/U) quantification by HPLC-coupled spectrophotometry in HEK-293 cells; settings: 24 h, 5, 10 or 20 µg/mL
Protocol: Cells were cultured at 37°C and 5% CO2 in Dulbecco's modified Eagle's Medium (DMEM; Sigma-Aldrich) containing 10% fetal calf serum (FCS), penicillin and streptomycin. Nucleoside/nucleotide quantification in HEK-293 cells was performed as previously described in by Lucas-Hourani et al. (2017). Briefly, cells were plated in 6-well plates at 1x10^6 cells per well and after 24 h, several concentrations of compounds of the invention (diluted in DMSO) or DMSO alone was added.
One day later, cells were washed with PBS and cellular pellets were deproteinized by adding an equal volume of 6% perchloric acid. After 10 min of incubation on ice and clearing of the extracts by centrifugation (13,000 rpm for 10 min at 4°C), supernatants were supplemented with bidistilled water (V/V) and neutralized by the addition of 2 M Na2CO3. Extracts were analyzed by HPLC onto a C18 Supelco 5-µm (250 by 4.6 mm) column (Sigma) at 45°C using a mobile phase delivered at a flow rate of 1 mL/min. Buffer A contained 10 mM tetrabutylammonium hydroxide, 10 mM KH2PO4, and 0.25% MeOH and was adjusted to pH 6.9 with 1 M HCl. Buffer B contained 5.6 mM tetrabutylammonium hydroxide, 50 mM KH2PO4, and 30% MeOH and was neutralized to pH 7.0 with 1 M NaOH. […] Products were monitored spectrophotometrically at 254 nm with a diode array detector (PDA) and quantified by integration of the peak absorbance area. […]

[3] = system: cellular response to IFN-α; assay: ISRE-Luc reporter assay: amplification of cellular response to IFN-α; settings: for amplification of cellular response to IFN-α: HEK-293 ISRE-Luc (STING 37 cell line); for amplification of cellular response to IFN-α / pEC50 / EC50: IFN-α 150 IU/mL; for pEC50 / EC50: ISRE-Luc reporter cells, dose-response 0.8 to 150 µM, luciferase after 24 h, pEC50<3.8 = inactive
Protocol: Cells were cultured at 37°C and 5% CO2 in Dulbecco's modified Eagle's Medium (DMEM; Sigma-Aldrich) containing 10% fetal calf serum (FCS), penicillin and streptomycin. Experiments were performed on HEK-293 cells stably transfected with the ISRE-Luciferase reporter gene (ISRE-Luc), with or without NanoLuc as an additional reporter gene (Lucas-Hourani et al., 2013; Hayek et al., 2019).
Reporter cells were incubated with increasing concentrations of candidates DHODH inhibitors diluted in DMSO in the presence or not of recombinant IFN-α (150 IU/mL). Recombinant IFN-α was from Sigma-Aldrich or PBL Assay Science. Luciferase activity was quantified 24 h later.
To confirm that modulation of IFN-α is related to DHDOH inhibition by compounds of the invention, the same experiments were performed by adding either uridine (pyrimidine derivated nucleoside), dihydroorotate (DHO, the substrate od DHODH in pyrimidine de novo biosynthesis pathway) or orotate (the product of ubiquinone-mediated oxidation of DHO catalysed by DHODH) together with compound of the invention. uridine, orotate, and DHO are all from Sigma Aldrich.
Firefly luciferase expression in culture wells was measured using the Bright-Glo (Promega) or Britelite plus reagents (PerkinElmer), according to the manufacturer's recommendations. For each concentration, three independent experiments were performed.
Compounds were tested for their ability to boost cellular response to IFN-α using ISRE-Luc reporter cells.

human PBMC = assay: Cytokine expression levels in culture supernatants of PBMC activated with R848; settings: PBMC + R848 5 µg/mL, 24 h, supernatant
Protocol: as §1

Compound: CC1(c2ccccc2)OC(=O)c2c1ccn(C1CC1)c2=O (stereo not shown) [Compound 3, 5-cyclopropyl-1-methyl-1-phenylfuro[3,4-c]pyridine-3,4(1H,5H)-dione]
- amplification of cellular response to IFN-α [3]: amplified
- EC50 [3]: 25.1 µM

Compound: CC1(CCc2ccccc2)OC(=O)c2c1ccn(C1CC1)c2=O (stereo not shown) [Compound 4, 5-cyclopropyl-1-methyl-1-phenethylfuro[3,4-c]pyridine-3,4(1H,5H)-dione]
- EC50 [3]: 6.31 µM

Compound: CCOCc1nc2c(N)nc3ccccc3c2n1CC(C)(C)O [Compound R848]
- GM-CSF (human PBMC): 0.043 ng/mL
- IFN-α2 (human PBMC): 0.097 ng/mL
- IFN-β (human PBMC): 0.015 ng/mL
- IFN-γ (human PBMC): 4.2 ng/mL
- IFN-λ1 (human PBMC): 0.016 ng/mL
- IL-1β (human PBMC): 12 ng/mL
- IL-6 (human PBMC): 65 ng/mL
- IL-8 (human PBMC): 214 ng/mL
- IL-10 (human PBMC): 0.283 ng/mL
- IL-12p70 (human PBMC): 0.009 ng/mL
- IP10 (human PBMC): 0.028 ng/mL
- TNF-α (human PBMC): 11 ng/mL

More lines, main results first:

- pEC50 [3]: 4.4
Compound: 5'-cyclopropyl-3'H-spiro[cyclohexane-1,1'-furo[3,4-c]pyridine]-3',4(5'H)-dione [Compound 2]
- Amplification of response to IFN type II [1]: Amplification of response to IFN type II
- proliferation of HEK-293 cells (number of viable cells) (HEK-293 cells): prevent cell proliferation
- Pyrimidine (U and C) levels [2]: drop of pyrimidine cellular concentration
- amplification of cellular response to IFN-α [3]: amplified
- reversal of amplification of response to IFN-α by uridine, orotate or DHO ([3]; compound 80 µM, uridine 125 µM, DHO 3 mM, orotate 3 mM): reversed by orotate but not DHO

- pEC50 [3]: 4.3
Compound: 5'-cyclopropyl-3'H-spiro[cyclopentane-1,1'-furo[3,4-c]pyridine]-3',4(5'H)-dione [Compound 1]
